Assay results: ChEMBL document CHEMBL2439983, “The discovery and optimization of novel dual inhibitors of topoisomerase II and histone deacetylase” (Bioorg Med Chem, 2013)
The source made the active and inactive calls. No cut-off for these calls is given here.

Experiments:
[1] = target: T1, Protein deacetylase HDAC6 (Homo sapiens, UniProt Q9UBN7); test: Inhibition of human recombinant HDAC6 expressed in baculovirus infected insect high5 cells using Boc-Lys (epsilon-acetyl)-AM) as substrate after 3 to 24 hrs by fluorescence assay
T1 sequence (Q9UBN7 whole entry): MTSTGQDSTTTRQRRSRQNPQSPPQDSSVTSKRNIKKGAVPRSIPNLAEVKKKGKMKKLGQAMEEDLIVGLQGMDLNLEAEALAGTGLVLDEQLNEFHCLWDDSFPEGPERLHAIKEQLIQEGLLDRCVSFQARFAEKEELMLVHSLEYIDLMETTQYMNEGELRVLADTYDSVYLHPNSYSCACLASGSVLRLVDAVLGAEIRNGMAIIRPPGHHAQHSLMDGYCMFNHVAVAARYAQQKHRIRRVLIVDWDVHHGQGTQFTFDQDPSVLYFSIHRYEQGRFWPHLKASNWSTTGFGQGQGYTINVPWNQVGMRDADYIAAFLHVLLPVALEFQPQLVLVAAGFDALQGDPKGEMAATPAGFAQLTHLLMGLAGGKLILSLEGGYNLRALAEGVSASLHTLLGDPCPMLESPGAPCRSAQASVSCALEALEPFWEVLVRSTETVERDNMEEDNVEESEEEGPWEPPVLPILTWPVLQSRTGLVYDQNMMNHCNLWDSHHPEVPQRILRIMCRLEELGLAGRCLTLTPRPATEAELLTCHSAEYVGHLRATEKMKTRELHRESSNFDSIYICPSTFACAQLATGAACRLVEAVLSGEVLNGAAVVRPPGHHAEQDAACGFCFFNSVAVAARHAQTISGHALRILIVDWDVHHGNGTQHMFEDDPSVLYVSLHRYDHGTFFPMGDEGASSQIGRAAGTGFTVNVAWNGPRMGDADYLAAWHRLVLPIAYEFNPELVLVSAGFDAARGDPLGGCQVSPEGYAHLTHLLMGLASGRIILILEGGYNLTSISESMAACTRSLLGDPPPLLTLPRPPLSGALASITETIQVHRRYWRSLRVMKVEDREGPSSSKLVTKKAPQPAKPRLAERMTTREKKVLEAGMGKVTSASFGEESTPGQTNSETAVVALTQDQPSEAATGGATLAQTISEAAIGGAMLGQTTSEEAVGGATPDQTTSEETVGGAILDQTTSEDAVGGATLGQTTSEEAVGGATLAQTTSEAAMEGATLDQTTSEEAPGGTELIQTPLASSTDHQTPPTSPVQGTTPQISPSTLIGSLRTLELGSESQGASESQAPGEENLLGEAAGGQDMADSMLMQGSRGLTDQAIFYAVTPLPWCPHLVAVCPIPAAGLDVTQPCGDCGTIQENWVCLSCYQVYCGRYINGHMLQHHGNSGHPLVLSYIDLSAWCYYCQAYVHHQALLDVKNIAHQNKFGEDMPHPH

Histone deacetylase 1 = Histone deacetylase 1 (Homo sapiens, UniProt Q13547); test: Inhibition of human recombinant HDAC1 expressed in baculovirus infected insect high5 cells using Ac-Lys-Tyr-Lys (epsilon-acetyl)-AMC as substrate after 3 to 24 hrs by fluorescence assay
HCT-116 = test: cells; conditions: Homo sapiens, HCT-116, 72 h
Description: Antiproliferative activity against human HCT116 cells assessed as cell viability after 72 hrs by MTT assay

Histone deacetylase 3 = Histone deacetylase 3 (Homo sapiens, UniProt O15379); test: Inhibition of human recombinant HDAC3 expressed in baculovirus infected insect high5 cells using Ac-Lys-Tyr-Lys (epsilon-acetyl)-AMC as substrate after 3 to 24 hrs by fluorescence assay
A549 = test: Antiproliferative activity against human A549 cells assessed as cell viability after 72 hrs by MTT assay; type: functional, cell-based; conditions: A549, 72 h
Histone deacetylase 2 = Histone deacetylase 2 (Homo sapiens, UniProt Q92769); test: Inhibition of HDAC2 (unknown origin)
[2] = target: DNA topoisomerase 2-alpha (Homo sapiens) (UniProt P11388); test: Inhibition of Topoisomerase 2 (unknown origin) assessed as impairment of pBR322 DNA decatenation at 100 uM after 30 mins by agarose gel electrophoresis
Sequence of DNA topoisomerase 2-alpha (Homo sapiens) (P11388 whole entry): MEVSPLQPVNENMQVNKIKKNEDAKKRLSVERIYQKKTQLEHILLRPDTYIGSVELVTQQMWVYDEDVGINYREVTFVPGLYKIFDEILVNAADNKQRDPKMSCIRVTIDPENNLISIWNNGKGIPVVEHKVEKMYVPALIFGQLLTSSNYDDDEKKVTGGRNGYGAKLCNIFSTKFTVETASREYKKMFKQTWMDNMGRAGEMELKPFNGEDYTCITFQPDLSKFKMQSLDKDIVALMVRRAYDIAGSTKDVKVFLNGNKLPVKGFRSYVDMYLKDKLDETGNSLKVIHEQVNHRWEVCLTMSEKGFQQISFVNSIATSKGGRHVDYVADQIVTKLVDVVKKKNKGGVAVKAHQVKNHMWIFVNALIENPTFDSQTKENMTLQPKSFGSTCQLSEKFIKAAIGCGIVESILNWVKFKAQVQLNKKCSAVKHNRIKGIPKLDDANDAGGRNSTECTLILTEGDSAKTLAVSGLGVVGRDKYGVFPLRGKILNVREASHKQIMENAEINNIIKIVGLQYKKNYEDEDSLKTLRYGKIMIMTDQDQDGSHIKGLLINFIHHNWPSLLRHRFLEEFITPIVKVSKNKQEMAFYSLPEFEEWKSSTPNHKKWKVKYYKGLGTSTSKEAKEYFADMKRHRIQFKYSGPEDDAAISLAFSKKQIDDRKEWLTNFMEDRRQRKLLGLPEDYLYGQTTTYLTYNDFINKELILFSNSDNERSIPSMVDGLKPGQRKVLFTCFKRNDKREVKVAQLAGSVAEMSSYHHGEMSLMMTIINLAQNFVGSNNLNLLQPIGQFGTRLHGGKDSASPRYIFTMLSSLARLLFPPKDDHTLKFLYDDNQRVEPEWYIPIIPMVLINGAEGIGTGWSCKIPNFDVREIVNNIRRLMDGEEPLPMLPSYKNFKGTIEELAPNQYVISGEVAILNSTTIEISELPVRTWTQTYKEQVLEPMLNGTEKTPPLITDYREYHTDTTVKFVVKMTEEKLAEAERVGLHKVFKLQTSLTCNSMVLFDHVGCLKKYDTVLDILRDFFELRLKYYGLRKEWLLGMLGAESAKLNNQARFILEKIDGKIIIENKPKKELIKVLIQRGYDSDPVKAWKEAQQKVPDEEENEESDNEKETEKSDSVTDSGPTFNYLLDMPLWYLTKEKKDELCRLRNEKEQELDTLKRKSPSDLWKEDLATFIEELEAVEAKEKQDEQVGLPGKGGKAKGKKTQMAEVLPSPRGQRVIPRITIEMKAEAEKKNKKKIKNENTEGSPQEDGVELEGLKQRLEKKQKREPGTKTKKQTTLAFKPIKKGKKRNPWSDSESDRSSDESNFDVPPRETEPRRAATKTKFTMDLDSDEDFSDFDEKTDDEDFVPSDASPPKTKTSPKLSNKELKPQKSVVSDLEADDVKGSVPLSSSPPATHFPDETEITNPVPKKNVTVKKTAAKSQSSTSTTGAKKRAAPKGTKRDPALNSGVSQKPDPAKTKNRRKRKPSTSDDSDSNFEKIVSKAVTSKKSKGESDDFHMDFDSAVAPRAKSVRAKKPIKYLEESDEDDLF

Sequence of Histone deacetylase 1 (Q13547 whole entry): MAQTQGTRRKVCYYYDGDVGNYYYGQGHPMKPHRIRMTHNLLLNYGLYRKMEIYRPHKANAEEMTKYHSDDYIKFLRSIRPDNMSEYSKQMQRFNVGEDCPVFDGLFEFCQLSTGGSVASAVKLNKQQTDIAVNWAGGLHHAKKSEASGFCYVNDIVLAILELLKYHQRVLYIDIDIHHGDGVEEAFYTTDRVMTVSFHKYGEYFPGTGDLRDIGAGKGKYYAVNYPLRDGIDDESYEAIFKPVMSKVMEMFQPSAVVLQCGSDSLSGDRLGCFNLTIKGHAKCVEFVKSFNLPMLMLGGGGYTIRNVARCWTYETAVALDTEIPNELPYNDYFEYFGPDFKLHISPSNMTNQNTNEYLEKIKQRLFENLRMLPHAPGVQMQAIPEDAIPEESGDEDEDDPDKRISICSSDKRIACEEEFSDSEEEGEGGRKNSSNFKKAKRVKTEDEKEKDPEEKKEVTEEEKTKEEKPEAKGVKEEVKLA
Sequence of Histone deacetylase 2 (Q92769 whole entry): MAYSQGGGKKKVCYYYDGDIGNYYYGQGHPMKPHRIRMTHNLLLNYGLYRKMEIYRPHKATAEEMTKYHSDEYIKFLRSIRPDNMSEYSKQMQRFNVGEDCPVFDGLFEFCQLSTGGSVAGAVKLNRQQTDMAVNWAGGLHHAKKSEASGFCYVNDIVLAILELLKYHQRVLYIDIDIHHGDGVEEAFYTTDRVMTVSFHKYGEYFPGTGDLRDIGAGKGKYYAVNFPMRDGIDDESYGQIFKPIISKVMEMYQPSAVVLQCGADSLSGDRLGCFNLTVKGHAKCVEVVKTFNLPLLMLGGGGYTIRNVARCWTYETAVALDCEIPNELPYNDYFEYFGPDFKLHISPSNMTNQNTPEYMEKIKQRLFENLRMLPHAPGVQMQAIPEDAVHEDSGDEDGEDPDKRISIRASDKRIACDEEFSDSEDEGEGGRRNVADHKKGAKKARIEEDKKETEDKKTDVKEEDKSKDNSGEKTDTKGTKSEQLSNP
Sequence of Histone deacetylase 3 (O15379 whole entry): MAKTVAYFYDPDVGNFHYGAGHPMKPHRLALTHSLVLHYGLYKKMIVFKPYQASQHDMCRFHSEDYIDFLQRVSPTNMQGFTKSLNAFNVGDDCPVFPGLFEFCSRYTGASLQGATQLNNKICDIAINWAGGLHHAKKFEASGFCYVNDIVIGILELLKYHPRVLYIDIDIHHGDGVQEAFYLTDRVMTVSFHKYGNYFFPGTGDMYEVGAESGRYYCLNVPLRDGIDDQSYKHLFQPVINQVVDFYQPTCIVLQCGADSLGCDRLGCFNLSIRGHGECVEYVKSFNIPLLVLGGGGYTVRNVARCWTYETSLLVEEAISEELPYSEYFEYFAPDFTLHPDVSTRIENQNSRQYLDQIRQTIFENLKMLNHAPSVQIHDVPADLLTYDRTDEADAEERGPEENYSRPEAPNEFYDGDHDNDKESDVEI

Compound | IC50 [1] | IC50 (Histone deacetylase 1) | IC50 (HCT-116) | IC50 (Histone deacetylase 3) | IC50 (A549) | IC50 (Histone deacetylase 2) | inhibition [2]
COc1cc([C@@H]2c3cc4c(cc3[C@@H](Nc3cccc(NC(=O)CCCCCC(=O)NO)c3)[C@H]3COC(=O)[C@H]23)OCO4)cc(OC)c1O | 160 nM | 380 nM | 19600 nM | 590 nM |  |  | 
COc1cc([C@@H]2c3cc4c(cc3[C@@H](Nc3ccc(OCCCC(=O)NO)cc3)[C@H]3COC(=O)[C@H]23)OCO4)cc(OC)c1O | 214 nM | 243 nM | 5370 nM | 193 nM |  |  | 
COc1cc([C@@H]2c3cc4c(cc3[C@@H](Nc3ccccc3OCCCCC(=O)NO)[C@H]3COC(=O)[C@H]23)OCO4)cc(OC)c1O | 84 nM | 369 nM | 16500 nM | 899 nM |  |  | 
COc1cc([C@@H]2c3cc4c(cc3[C@@H](Nc3ccccc3OCCCCCC(=O)NO)[C@H]3COC(=O)[C@H]23)OCO4)cc(OC)c1O | 20 nM | 145 nM | 8100 nM | 188 nM |  |  | 
O=C(CCCCCCC(=O)Nc1ccccc1)NO |  |  |  |  |  |  | inactive
COc1cc([C@@H]2c3cc4c(cc3[C@@H](Nc3ccccc3OCCCCCCCC(=O)NO)[C@H]3COC(=O)[C@H]23)OCO4)cc(OC)c1O | 217 nM | 175 nM | 11400 nM | 217 nM |  |  | 
COc1cc([C@@H]2c3cc4c(cc3[C@@H](Nc3cccc(NC(=O)CCCCCCC(=O)NO)c3)[C@H]3COC(=O)[C@H]23)OCO4)cc(OC)c1O | 40 nM | 100 nM | 8570 nM | 130 nM |  |  | Active
COc1cc([C@@H]2c3cc4c(cc3[C@@H](Nc3cccc(NC(=O)CCCCC(=O)NO)c3)[C@H]3COC(=O)[C@H]23)OCO4)cc(OC)c1O | 520 nM | 1430 nM | 14100 nM | 2110 nM |  |  | 
COc1cc([C@@H]2c3cc4c(cc3[C@@H](Nc3cccc(OCCCCCC(=O)NO)c3)[C@H]3COC(=O)[C@H]23)OCO4)cc(OC)c1O | 15 nM | 45 nM | 5720 nM | 81 nM |  |  | 
COc1cc([C@@H]2c3cc4c(cc3[C@@H](Nc3ccccc3OCCCCCCC(=O)NO)[C@H]3COC(=O)[C@H]23)OCO4)cc(OC)c1O | 27 nM | 72 nM | 11300 nM | 155 nM |  |  | Active
COc1cc([C@@H]2c3cc4c(cc3[C@@H](Nc3cccc(OCCCC(=O)NO)c3)[C@H]3COC(=O)[C@H]23)OCO4)cc(OC)c1O | 405 nM | 385 nM | 29400 nM | 767 nM |  |  | 
COc1cc([C@@H]2c3cc4c(cc3[C@@H](Nc3ccccc3OCCCC(=O)NO)[C@H]3COC(=O)[C@H]23)OCO4)cc(OC)c1O | 357 nM | 578 nM | 28900 nM | 1440 nM |  |  | 
COc1cc([C@@H]2c3cc4c(cc3[C@@H](Nc3cccc(OCCCCC(=O)NO)c3)[C@H]3COC(=O)[C@H]23)OCO4)cc(OC)c1O | 42 nM | 93 nM | 6290 nM | 111 nM |  |  | 

Other lines, results leading:

IC50 [1] | IC50 (Histone deacetylase 1) | IC50 (HCT-116) | IC50 (Histone deacetylase 3) | IC50 (A549) | IC50 (Histone deacetylase 2) | inhibition [2] | Compound
90 nM | 210 nM | 1270 nM | 230 nM | 18600 nM | 140 nM | Active | COc1cc([C@@H]2c3cc4c(cc3[C@@H](Nc3ccc(NC(=O)CCCCCCC(=O)NO)cc3)[C@H]3COC(=O)[C@H]23)OCO4)cc(OC)c1O
69 nM | 39 nM | 5190 nM | 69 nM |  |  |  | COc1cc([C@@H]2c3cc4c(cc3[C@@H](Nc3cccc(OCCCCCCCC(=O)NO)c3)[C@H]3COC(=O)[C@H]23)OCO4)cc(OC)c1O
1060 nM | 2830 nM | 3760 nM | 1690 nM |  |  |  | COc1cc([C@@H]2c3cc4c(cc3[C@@H](Nc3ccc(NC(=O)CCCCC(=O)NO)cc3)[C@H]3COC(=O)[C@H]23)OCO4)cc(OC)c1O
 | 14100 nM | 520 nM | 11600 nM | 1160 nM | 10400 nM | Active | COc1cc([C@@H]2c3cc4c(cc3[C@@H](Nc3ccc(OCCCCCCC(=O)Nc5ccccc5N)cc3)[C@H]3COC(=O)[C@H]23)OCO4)cc(OC)c1O
53 nM | 87 nM | 3720 nM | 53 nM |  |  |  | COc1cc([C@@H]2c3cc4c(cc3[C@@H](Nc3ccc(OCCCCCCCC(=O)NO)cc3)[C@H]3COC(=O)[C@H]23)OCO4)cc(OC)c1O
26 nM | 207 nM | 4920 nM | 69 nM |  |  |  | COc1cc([C@@H]2c3cc4c(cc3[C@@H](Nc3ccc(OCCCCCC(=O)NO)cc3)[C@H]3COC(=O)[C@H]23)OCO4)cc(OC)c1O
16 nM | 29 nM | 5030 nM | 49 nM |  |  | Active | COc1cc([C@@H]2c3cc4c(cc3[C@@H](Nc3ccc(OCCCCCCC(=O)NO)cc3)[C@H]3COC(=O)[C@H]23)OCO4)cc(OC)c1O
 | > 34000 nM | 870 nM |  |  |  | Active | COc1cc([C@@H]2c3cc4c(cc3[C@@H](O[C@@H]3O[C@@H]5CO[C@@H](C)O[C@H]5[C@H](O)[C@H]3O)[C@H]3COC(=O)[C@H]23)OCO4)cc(OC)c1O [ETOPOSIDE]
 |  | 920 nM |  | 1110 nM | 53500 nM |  | COc1cc([C@@H]2c3cc4c(cc3[C@@H](Nc3cccc(OCCCCCCC(=O)Nc5ccccc5N)c3)[C@H]3COC(=O)[C@H]23)OCO4)cc(OC)c1O
5.6 nM | 11 nM | 3330 nM | 9.6 nM |  |  | Active | COc1cc([C@@H]2c3cc4c(cc3[C@@H](Nc3cccc(OCCCCCCC(=O)NO)c3)[C@H]3COC(=O)[C@H]23)OCO4)cc(OC)c1O
88 nM | 125 nM | 5260 nM | 242 nM |  |  |  | COc1cc([C@@H]2c3cc4c(cc3[C@@H](Nc3ccc(OCCCCC(=O)NO)cc3)[C@H]3COC(=O)[C@H]23)OCO4)cc(OC)c1O
130 nM | 590 nM | 2940 nM | 520 nM |  |  |  | COc1cc([C@@H]2c3cc4c(cc3[C@@H](Nc3ccc(NC(=O)CCCCCC(=O)NO)cc3)[C@H]3COC(=O)[C@H]23)OCO4)cc(OC)c1O
 |  | 1570 nM |  |  |  | inactive | Nc1ccccc1NC(=O)c1ccc(CNc2nccc(-c3cccnc3)n2)cc1 [MOCETINOSTAT]
